The values below come from publication PMC12463534, “Exploring the Anticancer Properties of 4-Phenylthiazole-Based Ru(II) and Os(II) Metallacycles Featuring 1-Methylimidazole as N-Donor Functionality” (Bioinorganic Chemistry and Applications, 2025).

Structures are written as SMILES.

Data set [1] deals with SW480 cancer cells. As to the kind of experiment: Cellular accumulation (ICP-MS) in SW480 cells. To be noted: 50 μM, 0.5% DMF in MEM, SW480, exposure time 2 h. On the procedure: As the coordinated p-cym and leaving groups are present in all synthesized complexes, we focused on the differently substituted 4-phenylthiazoles for estimated changes in lipophilicity.
Cellular accumulation of the compounds was studied based on a method described previously with modifications. 1.8 × 10^5 SW480 cells per well were seeded in aliquots of 1 mL of complete MEM (see above) into 12-well plates (CytoOne, tissue culture treated, Starlab) and incubated at 37°C for 24 h. Then, cells were exposed for 2 h at 37°C to 50 μM solutions of the test compounds (containing 0.5% DMF) in fresh 0.5 mL of complete MEM upon exchange of the medium. Afterward, cells were washed three times with 1 mL PBS per well, lysed with 0.4 mL sub-boiled HNO3 per well for 1 h at room temperature, and 0.3 mL of each sample was diluted with 7.7 mL Milli-Q water. Adsorption/desorption controls were prepared in the same manner in cell-free wells. Ruthenium content was quantified by ICP-MS using an ICP-quadrupole MS Agilent 7800 instrument (Agilent Technologies, Waldbronn, Germany) as described previously.

Data set [2] can be described thus: Stability and reactivity in aqueous solution (1H-NMR, UV-vis).
Protocol: The exact concentration of the metal complex stock solutions was calculated on weight-in-volume basis. Complexes were dissolved in water in 1–5 mM concentration.
The path length was 1 cm.
^1H-NMR spectroscopic studies were carried out on a Bruker FT-NMR spectrometer AV NEO 500.10 MHz and a Bruker Avance III HD Ascend 500 Plus instrument. All ^1H-NMR spectra were recorded using a standard Bruker noesygppr1d pulse sequence to suppress water resonance. […] Samples contained 10% (v/v) D2O with a complex concentration of ca. 1 mM. Samples were prepared in pH 1.3 aqueous HCl solution or in pH 7.4 PBS.
Data set [3] relates to CT26 tumor. Description: Anticancer activity in CT26 tumor-bearing BALB/c mice. It counts as in vivo. To be noted: i.p. 50 mg/kg. As to the method:
Figure 5 Anticancer activity of 1c and 3c in vivo. CT26-bearing BALB/c mice were treated i.p. with 50 mg/kg for five consecutive days for 2 weeks. (a) Impact on tumor growth; data are presented as mean ± SEM. […] On Day 15, most of the animals were sacrificed and tissues collected for further analyses. Of each group, 4 animals were kept to assess the impact on overall survival, which is shown in (b). Statistical significance was tested by log-rank test and Mantel–Cox post-test, ^∗p < 0.01. (c) The ruthenium levels measured by ICP-MS in the collected tissue samples of the mice, which were sacrificed 2 h after the last treatment.
CT26 cells (5 × 10^5 cells in 50-μL serum-free medium) were injected subcutaneously (s.c.) into the right flank of 8–16-week-old BALB/c mice (Envigo Laboratories, San Pietro Al Natisone, Italy). After 3 days, therapy treatment started on five consecutive days for 2 weeks. Animals were treated i.p. with 50 mg/kg 1c and 3c (all dissolved in 10% DMSO in 0.9% NaCl, 12 mice per group). The solvent control animals received 10% DMSO in 0.9% NaCl. Every day, the animals were monitored for the overall health conditions and tumor size was measured regularly by caliper measurement. Tumor volumes (mm^3) were calculated using following formula: length × width^2/2. In the overall survival arm of the experiment, mice were sacrificed by cervical dislocation in the case of a tumor length > 20 mm or tumor ulceration or a decreased body weight of ∼20%. Tumor growth and possible side effects of the treatment were evaluated by daily recording the tumor size by caliper measurement and parameters of the animal's overall health conditions. In the tissue sampling arm at the experiment, the mice were sacrificed by cervical dislocation 2 h after the last treatment. Tumors as well as organs were collected. Additionally, blood was drawn and incubated for 25 min to allow blood clotting. To isolate serum and blood pellets, the blood was centrifuged for 10 min at 17,900 g at room temperature. The supernatant characterized as serum was transferred to a new tube and centrifuged again to remove residual red blood cells. All collected samples were stored at −20°C and further processed for platinum measurements via ICP-MS.

The subject of data set [4] is SW480 cells. As to the kind of experiment: DCFH-DA assay, cellular ROS levels. It counts as cell-based, human. The settings on record: 2 h, concentration dependent.
The test system of data set [5] is A549 lung adenocarcinoma cells. As to the kind of experiment: MTT assay, inhibition of cancer cell growth, A549. To be noted: read-out: 50% inhibitory concentration A549, exposure time 96 h. For orientation: Tetrazolium assays rely on reduction of a dye to a coloured formazan, in cell work by metabolically active cells.
Protocol: (§1) CH1/PA-1 ovarian teratocarcinoma cells (CH1, RRID: CVCL_4992, provided by L. R. Kelland, CRC Center for Cancer Therapeutics, Institute of Cancer Research, Sutton, UK; confirmed by STR profiling as PA-1 ovarian teratocarcinoma cells at Multiplexion, Heidelberg, Germany), SW480 colon adenocarcinoma (RRID: CVCL_0546), and A549 lung adenocarcinoma cells (NCI-H2618, RRID: CVCL_A549; both cell lines were obtained from the American Type Culture Collection (ATCC), Manassas, VA, USA) were grown as adherent cultures in 75-cm^2 culture flasks (Starlab, Hamburg, Germany) by using minimal essential medium (MEM) supplemented with 1 mM sodium pyruvate, 4 mM L-glutamine, 1% (v/v) nonessential amino acids from 100-fold stock (all purchased from Sigma-Aldrich), and 10% heat-inactivated fetal bovine serum (Serana, Pessin, Germany).
(§2) The 3-(4,5-dimethylthiazol-2-yl)-2,5-diphenyl-2H tetrazolium bromide (MTT, Acros Organics, Geel, Belgium) assay was used to detect the cytotoxicity of the compounds after 96-h incubation. For this purpose, cells were harvested from culture flasks by trypsinization, seeded in 100-μL aliquots into 96-well microculture plates (Starlab, UK) in densities of 1 × 10^3 (CH1/PA-1), 2 × 10^3 (SW480), and 3 × 10^3 (A549) cells per well and incubated for 24 h prior to exposure to the test compounds. Stock solutions of test compounds were prepared in DMF, which were then diluted in MEM (not to exceed a final content of 0.5% v/v of organic solvent in the test plates), and serial dilutions were added in aliquots of 100 μL per well. […] After incubation for 4 h, the medium/MTT mixtures were removed, and the produced formazan crystals were dissolved in 150 μL DMSO per well. Optical densities at 550 nm were measured spectrophotometrically with a ELx808 Absorbance Microplate Reader (Bio-Tek, Winooski, VT, USA) by using a reference wavelength of 690 nm to correct for unspecific absorption.
Data set [6] deals with HCT116 colorectal cancer cell line (2D). Description: Resazurin assay, HCT116 2D (monolayer) culture. To be noted: read-out: IC50 2D, resazurin assay, 96 h exposure. On the technique in general: Alamar Blue is a resazurin reagent that responds to reducing activity.
Protocol: Both models were investigated by the fluorimetric resazurin assay after 96-h exposure.
HCT116 colorectal carcinoma cells (RRID:CVCL_0291 from ATCC) were cultivated in McCoy's 5A medium, supplemented with 10% heat-inactivated fetal bovine serum and 4 mM L-glutamine.
For 2D experiments, HCT116 cells were harvested from culture flasks by trypsinization, seeded in 100-μL aliquots into 96-well microculture plates (CytoOne, TC-treated, from Starlab) in densities of 2 × 10^3 cells per well, and incubated for 24 h prior to exposure to the test compounds. […] Stock solutions of test compounds were prepared in DMF, which were then diluted in McCoy's 5A-supplemented medium (not to exceed a final content of 0.5% v/v of organic solvent in the test plates), and serial dilutions were added in aliquots of 100 μL per well. […] After incubation for 4 h, fluorescence was measured with a microplate reader (Bio-Tek, SynergyHT) at a wavelength of 530 nm, additionally using a reference wavelength of 620 nm.
The test system of data set [7] is CH1/PA-1 ovarian teratocarcinoma cells. As to the kind of experiment: MTT assay, inhibition of cancer cell growth, CH1/PA-1. The settings on record: read-out: 50% inhibitory concentration CH1, exposure time 96 h.
Protocol: as §1, §2

Consider `Cc1ccc(C(C)C)cc1.Cn1cc[n+]([Ru-]2[c]3cc(S(C)(=O)=O)ccc3-c3csc[n+]32)c1.O=[N+]([O-])[O-]` [Compound 3c, [((3-κN)-1-Methylimidazole)(4-(4-(methylsulfonyl)phenyl)thiazolato-κN,κC2′)(η^6-p-cymene)ruthenium(II)] Nitrate], for which, in data set [1], the “Cellular accumulation, fg Ru/cell” value is on record as 4.6 ± 0.6 fg Ru/cell. The “Sensitivity to chloride: replacement of coordinated MeIm” value in data set [2] (3 M KCl, pH 7.4, UV-vis) is given as “could not replace coordinated MeIm”. Also, the “Decomposition at pH 7.4” value in data set [2] (PBS pH 7.4, 1 mM complex, 25°C, within 6 days, 1H-NMR) is given as “no decomposition”. In data set [2] (pH = 1.0 or 1.3 (HCl), followed in time up to 6 days, 1H-NMR/UV-vis), the “Behaviour in acidic solution” value is on record as “decomposition”. For the same molecule, in data set [2] (pH = 10.0 (NaOH), within 2 days, UV-vis), the “Spectral change at pH 10.0” value is recorded as “no spectral change”. The “Impact on overall survival” value in data set [3] (4 mice per group, log-rank test) was “significantly prolonged overall survival”. Besides, in data set [3] (5 times a week for two weeks, did not reach statistical significance), the “Impact on tumor volume (anticancer activity)” value was “slight anticancer activity”. In addition, the “Survival of one animal” value in data set [3] (one animal) is 48 days. Further, the “Effect on intracellular ROS levels” value in data set [4] was “constantly decrease ROS levels with increasing concentrations”. The values for the IC50 in data set [5], in data set [6] and in data set [7] were above 200 µM, above 200 µM and 102 ± 11 µM, respectively.
